# Laboratory results: US20230339889A1, “DERIVATIVES OF 2-OXO-N-(4-(PYRIMIDIN-4-YLOXY/THIO)PHENYL)-1,2-DIHYDROPYRIDINE-3-CARBOXAMIDE FOR USE AS PROTEIN KINASE INHIBITORS FOR THERAPY” (AUCENTRA THERAPEUTICS PTY LTD, priority 2020, published 2023)
# What was measured:
# AXL = molecular target: T1, AXL (Homo sapiens, UniProt P30530); experiment: Filter-binding radiometric kinase activity assay (KinaseProfiler, Eurofins); format: biochemical; conditions: 1 µM compound; read-out: % Residual enzymatic activity at 1 µM AXL
# T1 construct: purchased Eurofins Discovery (Kinase Profiler service)
# T1 sequence (P30530 26-894): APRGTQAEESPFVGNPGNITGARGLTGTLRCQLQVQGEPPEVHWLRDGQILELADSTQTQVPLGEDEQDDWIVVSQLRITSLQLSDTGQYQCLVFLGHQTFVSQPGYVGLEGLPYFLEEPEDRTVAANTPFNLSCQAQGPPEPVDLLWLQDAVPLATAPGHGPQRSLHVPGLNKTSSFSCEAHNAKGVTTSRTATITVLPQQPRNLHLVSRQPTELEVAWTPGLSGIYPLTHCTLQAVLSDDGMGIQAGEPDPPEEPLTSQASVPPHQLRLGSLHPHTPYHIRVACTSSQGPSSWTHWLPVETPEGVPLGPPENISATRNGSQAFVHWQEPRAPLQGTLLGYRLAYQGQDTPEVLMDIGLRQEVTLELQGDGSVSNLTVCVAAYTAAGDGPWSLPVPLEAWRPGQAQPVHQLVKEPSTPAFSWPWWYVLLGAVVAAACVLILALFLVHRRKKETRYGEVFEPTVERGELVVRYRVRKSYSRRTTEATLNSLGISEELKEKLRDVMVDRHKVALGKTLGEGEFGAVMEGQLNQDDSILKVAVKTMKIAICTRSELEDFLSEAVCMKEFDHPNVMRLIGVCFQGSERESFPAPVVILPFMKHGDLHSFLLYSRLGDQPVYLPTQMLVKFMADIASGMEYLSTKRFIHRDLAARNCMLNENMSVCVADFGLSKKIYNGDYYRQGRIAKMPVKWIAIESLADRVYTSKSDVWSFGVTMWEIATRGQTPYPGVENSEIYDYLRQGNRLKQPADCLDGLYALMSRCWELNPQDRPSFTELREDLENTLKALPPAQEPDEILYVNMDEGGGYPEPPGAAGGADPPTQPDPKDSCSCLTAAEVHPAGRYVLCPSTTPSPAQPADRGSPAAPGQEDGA
# Experimental: (§1) Filter-binding radiometric kinase activity assay (Kinase Profiler™) from Eurofins Discovery was used to determine the % of inhibition and/or IC50 values. […] The reaction is initiated by the addition of the Mg/ATP mixture. After incubation for 40 minutes at room temperature, the reaction is stopped by the addition of phosphoric acid to a concentration of 0.5%. 10 µL of the reaction is then spotted onto a P30 filter mat and washed four times for 4 minutes in 0.425% phosphoric acid and once in methanol prior to drying and scintillation counting. The IC50 values were derived by fitting a sigmoidal dose-response curve to a plot of assay readout over inhibitor concentration. All fits were computed with the GraphPad Prism Software (San Diego, CA, United States of America). Ki values were derived from IC5o values using Cheng Prusoff equation (Cheng Y et al., Biochem Pharmacol 22(23):3099-3108, 1973).
# MET = molecular target: T2, MET (Homo sapiens, UniProt P08581); experiment: as above; format: biochemical; conditions: 1 µM compound; read-out: % Residual enzymatic activity at 1 µM MET
# T2 construct: purchased Eurofins Discovery (Kinase Profiler service)
# T2 sequence (P08581 25-1390): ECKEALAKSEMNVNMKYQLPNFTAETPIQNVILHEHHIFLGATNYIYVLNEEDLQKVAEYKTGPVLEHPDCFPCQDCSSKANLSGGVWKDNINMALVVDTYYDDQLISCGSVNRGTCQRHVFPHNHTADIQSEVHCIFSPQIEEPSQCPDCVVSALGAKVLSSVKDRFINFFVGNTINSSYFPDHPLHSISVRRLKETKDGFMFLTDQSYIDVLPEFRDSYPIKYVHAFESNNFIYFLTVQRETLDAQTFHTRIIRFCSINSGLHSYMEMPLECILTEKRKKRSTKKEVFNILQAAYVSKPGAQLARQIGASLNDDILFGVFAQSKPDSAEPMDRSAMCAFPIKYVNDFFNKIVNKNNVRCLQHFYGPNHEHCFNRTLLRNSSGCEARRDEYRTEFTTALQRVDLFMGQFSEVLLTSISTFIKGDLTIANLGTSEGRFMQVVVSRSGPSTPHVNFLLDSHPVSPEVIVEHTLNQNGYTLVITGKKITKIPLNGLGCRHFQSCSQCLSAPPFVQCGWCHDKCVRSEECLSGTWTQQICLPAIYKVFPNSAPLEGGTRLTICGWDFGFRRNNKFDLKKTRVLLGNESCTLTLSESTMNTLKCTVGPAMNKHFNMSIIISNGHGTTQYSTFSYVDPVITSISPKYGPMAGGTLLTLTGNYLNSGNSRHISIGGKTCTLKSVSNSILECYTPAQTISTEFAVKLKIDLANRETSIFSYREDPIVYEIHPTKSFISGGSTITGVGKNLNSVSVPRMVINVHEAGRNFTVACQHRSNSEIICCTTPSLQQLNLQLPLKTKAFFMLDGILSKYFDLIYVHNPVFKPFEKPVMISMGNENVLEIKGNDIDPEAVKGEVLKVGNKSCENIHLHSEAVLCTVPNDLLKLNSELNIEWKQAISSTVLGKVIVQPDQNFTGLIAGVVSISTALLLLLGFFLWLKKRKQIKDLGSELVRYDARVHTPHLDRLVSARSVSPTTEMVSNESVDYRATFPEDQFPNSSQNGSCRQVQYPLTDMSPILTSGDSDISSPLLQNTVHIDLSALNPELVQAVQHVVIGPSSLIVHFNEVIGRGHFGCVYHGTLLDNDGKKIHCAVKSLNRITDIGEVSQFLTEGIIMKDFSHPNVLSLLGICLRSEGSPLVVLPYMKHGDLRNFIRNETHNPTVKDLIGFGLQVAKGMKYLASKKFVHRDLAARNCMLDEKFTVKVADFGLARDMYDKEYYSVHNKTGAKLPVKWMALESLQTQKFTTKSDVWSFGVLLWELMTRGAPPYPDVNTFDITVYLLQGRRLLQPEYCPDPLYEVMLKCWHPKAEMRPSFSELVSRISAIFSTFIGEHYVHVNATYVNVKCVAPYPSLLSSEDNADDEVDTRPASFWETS
# Experimental: as §1
# Mer = molecular target: T3, Mer (Homo sapiens, UniProt Q12866); experiment: as above; format: biochemical; conditions: 1 µM compound; read-out: % Residual enzymatic activity at 1 µM Mer
# T3 construct: purchased Eurofins Discovery (Kinase Profiler service)
# T3 sequence (Q12866 21-999): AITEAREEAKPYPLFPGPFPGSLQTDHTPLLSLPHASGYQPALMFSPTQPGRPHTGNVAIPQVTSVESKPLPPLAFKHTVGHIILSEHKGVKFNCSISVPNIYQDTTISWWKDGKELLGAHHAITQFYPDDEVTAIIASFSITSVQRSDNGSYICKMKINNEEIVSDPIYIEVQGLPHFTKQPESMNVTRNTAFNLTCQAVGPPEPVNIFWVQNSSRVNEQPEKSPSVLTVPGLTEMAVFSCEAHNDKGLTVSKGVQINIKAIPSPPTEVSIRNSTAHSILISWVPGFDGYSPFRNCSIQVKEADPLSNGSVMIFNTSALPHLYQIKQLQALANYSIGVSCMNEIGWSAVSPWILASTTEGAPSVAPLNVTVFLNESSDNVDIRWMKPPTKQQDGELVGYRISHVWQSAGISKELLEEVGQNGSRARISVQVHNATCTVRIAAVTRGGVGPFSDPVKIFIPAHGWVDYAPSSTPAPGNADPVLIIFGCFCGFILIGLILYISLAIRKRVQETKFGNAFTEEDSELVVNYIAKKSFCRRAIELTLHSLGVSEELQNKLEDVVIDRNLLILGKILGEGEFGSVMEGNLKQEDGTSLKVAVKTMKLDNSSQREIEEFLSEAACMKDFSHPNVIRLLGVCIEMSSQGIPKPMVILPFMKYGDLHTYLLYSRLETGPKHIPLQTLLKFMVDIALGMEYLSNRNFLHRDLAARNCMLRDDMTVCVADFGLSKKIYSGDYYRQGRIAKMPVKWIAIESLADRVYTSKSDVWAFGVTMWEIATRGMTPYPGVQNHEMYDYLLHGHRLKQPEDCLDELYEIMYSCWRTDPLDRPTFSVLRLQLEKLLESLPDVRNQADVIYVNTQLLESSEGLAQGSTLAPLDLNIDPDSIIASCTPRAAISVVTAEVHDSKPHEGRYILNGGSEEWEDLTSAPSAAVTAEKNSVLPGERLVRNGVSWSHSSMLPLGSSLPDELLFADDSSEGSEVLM
# Experimental: as §1
# TYRO3 = molecular target: T4, TYRO3 (Homo sapiens, UniProt Q06418); experiment: as above; format: biochemical; conditions: 1 µM compound; read-out: % Residual enzymatic activity at 1 µM TYRO3
# T4 construct: purchased Eurofins Discovery (Kinase Profiler service)
# T4 sequence (Q06418 41-890): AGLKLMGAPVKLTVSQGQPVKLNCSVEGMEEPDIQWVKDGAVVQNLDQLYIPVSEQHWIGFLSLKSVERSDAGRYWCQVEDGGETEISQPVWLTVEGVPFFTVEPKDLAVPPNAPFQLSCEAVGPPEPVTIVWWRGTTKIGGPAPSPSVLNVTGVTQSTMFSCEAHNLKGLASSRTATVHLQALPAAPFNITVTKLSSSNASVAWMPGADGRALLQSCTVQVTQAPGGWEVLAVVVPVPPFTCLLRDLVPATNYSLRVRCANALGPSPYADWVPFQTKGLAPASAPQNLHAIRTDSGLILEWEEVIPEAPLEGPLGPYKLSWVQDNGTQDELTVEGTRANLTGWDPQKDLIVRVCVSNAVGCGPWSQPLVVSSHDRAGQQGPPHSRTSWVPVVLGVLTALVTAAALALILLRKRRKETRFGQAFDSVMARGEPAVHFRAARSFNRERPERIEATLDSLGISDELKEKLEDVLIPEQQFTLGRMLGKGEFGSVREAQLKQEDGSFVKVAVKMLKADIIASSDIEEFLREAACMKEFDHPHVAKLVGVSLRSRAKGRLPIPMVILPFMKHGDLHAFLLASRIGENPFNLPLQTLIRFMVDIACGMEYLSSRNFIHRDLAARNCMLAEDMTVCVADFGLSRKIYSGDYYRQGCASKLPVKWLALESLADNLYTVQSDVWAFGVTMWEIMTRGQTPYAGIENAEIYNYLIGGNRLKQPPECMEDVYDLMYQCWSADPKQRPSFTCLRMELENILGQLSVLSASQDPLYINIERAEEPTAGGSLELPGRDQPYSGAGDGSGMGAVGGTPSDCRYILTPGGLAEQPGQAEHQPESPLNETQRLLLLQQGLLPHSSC
# Experimental: as §1
# FLT3-ITD = experiment: ADP Glo Kinase assay; format: biochemical; conditions: 1 µM compound
# Experimental: (§2) Inhibition of CDKs and FLT3 were determined using ADP Glo Kinase assays, as previously described in International Patent Publication No WO 2017/020065.
# MV4-11 = experiment: Proliferation assay (MTT, leukaemia cancer cell line); format: cell-based; conditions: Homo sapiens; 1 µM compound, MV4-11 cells
# Text: Compounds from Example 1 were subjected to standard resazurin and MTT assays on solid tumour and leukaemia cancer cell lines, respectively, as previously reported (Wang S et al., J Med Chem 47:1662-1675, 2004 and Diab S et al., CheMedChem 9:962-972, 2014).
# CDK2E = CDK2E (Homo sapiens, UniProt P24941); experiment: ADP Glo Kinase assay; format: biochemical; conditions: 1 µM compound; read-out: % Residual enzymatic activity at 1 µM CDK2E
# Experimental: as §2
Compound,remaining activity at 1 µM (AXL),remaining activity at 1 µM (MET),remaining activity at 1 µM (Mer),remaining activity at 1 µM (TYRO3),% Residual enzymatic activity at 1 µM FLT3-ITD (FLT3-ITD),remaining activity at 1 µM (CDK2E),activity at 1 µM (MV4-11)
"Nc1ncnc(Oc2ccc(NC(=O)c3cccn(-c4ccc(OC(F)(F)F)cc4)c3=O)cc2F)c1F [Cmpd 8, N-(4-((6-amino-5-fluoropyrimidin-4-yl)oxy)-3-fluorophenyl)-2-oxo-1-(4-(trifluoromethoxy)phenyl)-1,2-dihydropyridine-3-carboxamide]",112%,85%,100%,111%,91%,–,–
"Nc1ncnc(Oc2cc(F)c(NC(=O)c3cccn(-c4ccc(F)cc4)c3=O)cc2F)c1Cl [Cmpd 21, N-(4-((6-amino-5-chloropyrimidin-4-yl)oxy)-2,5-difluorophenyl)-1-(4-fluorophenyl)-2-oxo-1,2-dihydropyridine-3-carboxamide]",3%,5%,30%,3%,22%,–,3%
"Nc1ncnc(Oc2ccc(NC(=O)c3cccn(-c4ccc(C(F)(F)F)cc4)c3=O)cc2F)c1F [Cmpd 9, N-(4-((6-amino-5-fluoropyrimidin-4-yl)oxy)-3-fluorophenyl)-2-oxo-1-(4-(trifluoromethyl)phenyl)-1,2-dihydropyridine-3-carboxamide]",105%,64%,85%,106%,88%,–,–
"Nc1ncnc(Oc2ccc(NC(=O)c3cccn(-c4ccc(Cl)cc4)c3=O)cc2F)c1F [Cmpd 34, N-(4-((6-amino-5-fluoropyrimidin-4-yl)oxy)-3-fluorophenyl)-1-(4-chlorophenyl)-2-oxo-1,2-dihydropyridine-3-carboxamide]",50%,91%,103%,69%,–,97%,3%
"Nc1ncnc(Oc2ccc(NC(=O)c3cccn(-c4ccc(Cl)cc4)c3=O)c(F)c2)c1Cl [Cmpd 33, N-(4-((6-amino-5-chloropyrimidin-4-yl)oxy)-2-fluorophenyl)-1-(4-chlorophenyl)-2-oxo-1,2-dihydropyridine-3-carboxamide]",23%,10%,74%,6%,–,82%,1%
"Nc1ncnc(Oc2ccc(NC(=O)c3cccn(-c4ccc(F)cc4)c3=O)c(Cl)c2)c1Cl [Cmpd 37, N-(4-((6-amino-5-chloropyrimidin-4-yl)oxy)-2-chlorophenyl)-1-(4-fluorophenyl)-2-oxo-1,2-dihydropyridine-3-carboxamide]",78%,88%,87%,39%,–,96%,48%

# Continued, in another order:
remaining activity at 1 µM (AXL),remaining activity at 1 µM (MET),remaining activity at 1 µM (Mer),remaining activity at 1 µM (TYRO3),% Residual enzymatic activity at 1 µM FLT3-ITD (FLT3-ITD),remaining activity at 1 µM (CDK2E),Compound,activity at 1 µM (MV4-11)
57%,93%,89%,63%,43%,–,"Nc1ncnc(Oc2ccc(NC(=O)c3cccn(-c4ccc(F)cc4)c3=O)cc2Cl)c1F [Cmpd 22, N-(4-((6-amino-5-fluoropyrimidin-4-yl)oxy)-3-chlorophenyl)-1-(4-fluorophenyl)-2-oxo-1,2-dihydropyridine-3-carboxamide]",3%
67%,98%,95%,63%,51%,–,"Nc1ncnc(Oc2ccc(NC(=O)c3cccn(-c4ccc(F)cc4)c3=O)cc2Cl)c1Cl [Cmpd 23, N-(4-((6-amino-5-chloropyrimidin-4-yl)oxy)-3-chlorophenyl)-1-(4-fluorophenyl)-2-oxo-1,2-dihydropyridine-3-carboxamide]",1%
55%,65%,81%,52%,–,101%,"Nc1ncnc(Sc2ccc(NC(=O)c3cccn(-c4ccc(F)cc4)c3=O)cc2F)c1Cl [Cmpd 17, N-(4-((6-amino-5-chloropyrimidin-4-yl)thio)-3-fluorophenyl)-1-(4-fluorophenyl)-2-oxo-1,2-dihydropyridine-3-carboxamide]",4%
